Reference: EP4417190A1, “CYCLIC PEPTIDES WITH ANTI-AGING EFFICACY” (Lipotrue, S.L., priority 2023, dated 2024)
Ends that are not written are not given here. Peptide text beside a SMILES is read from it.

Assays:
Caspase 3 (CASP3) = test: Caspase 3 activity under BFA-induced endoplasmic reticulum stress in HEKa (Caspase-Glo 3/7); assay type: cell-based, human; conditions: BFA-induced ER stress, 24 h, vs BFA-treated cells (Figure 5)
Procedure: Caspase 3 (CASP3) is a protein member of the cysteine-aspartic acid protease family. Sequential activation of caspases plays a central role in the execution-phase of cell apoptosis. It was evaluated the effect of the cycled peptide B on the caspase 3 activity in human epidermal keratinocytes from adult (HEKa) subjected to endoplasmic reticulum (ER) stress.
HEKa cells were seeded in a black 96-well plate at a density of 18.000 cell/well in Dermal Cell Basal Medium (DCBM) and incubated at 37 °C in a humidified atmosphere with 5% CO2. After 24 h of incubation, cells were treated with 0.15 µg/mL BFA alone or in the presence of 0.005 mg/mL of the cycled peptide B and returned to the incubator for 24 h more. Untreated cells (Basal) were used as negative control samples. 24 hours after treatment, caspase 3 activity was evaluated using Caspase-Glo® 3/7 Assay System, following manufacturer instructions.
Each condition was performed at least in triplicates (n=3) in three independent experiments (N=3). For all data, mean values of relative fluorescence units (RFU) of the different experiments and SEM values are shown. All data was normalized as follows: % vs BFA = (RFU treated cells)/(RFU BFA treated cells) × 100 [formula]
Statistical data analysis was performed using Student t-test by comparison of % activity from test substance vs BFA-treated cells, *p<0.05, **p<0.01, ***p<0.001.

[1] = MTT assay, toxicity on HDFa cells; assay type: cell-based; conditions: human, normalized to non-treated cells, read-out: Cell viability
Procedure: (§1) Toxicity of cycled peptides A and B was analyzed on human dermal fibroblasts (HDFa) and adult human epidermal keratinocytes HEKa cells by MTT assay. A stock solution of the peptide was prepared in distilled water at 25 mg/mL. This stock solution was further diluted to obtain the final working concentrations (0.001, 0.005, 0.01, 0.05, 0.1 and 0.5 mg/mL) in the corresponding culture medium. Untreated cells were used as negative control samples (Basal).
(§2) Briefly, HEKa and HDFa cells were seeded in 96-well plates at a concentration of 1×10^5 cells/mL in a final volume of 200 µL of medium (20,000 cells/well). HEKa cells were incubated in Dermal Cell Basal Medium supplemented with the Keratinocytes Growth Kit; and HDFa cells were cultured in Medium 106 supplemented with 2% of LSGS. Cells were incubated at 37°C, 5% CO2 and saturated humidity.
(§3) After 24 h of incubation, cells were treated with different concentrations of each peptide (0.001, 0.005, 0.01, 0.05, 0.1 and 0.5 mg/mL) in triplicates, for MTT evaluation. After 24 h of treatment with the peptide, medium was completely removed, and 100 µL of 0.5 mg/mL MTT solution in supplemented medium were added to each well and cells were incubated at 37°C for 3 h. After incubating with MTT, the medium of each well was aspirated and 150 µL of DMSO were added in order to solubilise the formazan crystals formed. The plates were placed on a shaker for 5 minutes for complete solubilisation of the crystals and then the absorbance at 570 nm of each well was determined, using the microplate reader Multiskan FC, which is directly proportional to the number of living cells in culture.
(§4) Absorbance values were normalized using the data obtained for non-treated cells (control), obtaining the % of viability shown in Tables 1 and 2. Each condition was performed in triplicate (n=3) in 3 independent experiments (N=3).
(§5) Concentrations of peptide for which viability is above 80% are considered safe for efficacy testing. On the contrary, concentrations for which viability goes below 80% are considered potentially toxic and are not used for efficacy testing purposes. Table 1: Toxicity of cycled peptides on HDFa cells.

[2] = MTT assay, toxicity on HEKa cells; assay type: cell-based; conditions: human, normalized to non-treated cells, read-out: Cell viability
Procedure: as §1, §2, §3, §4, §5

CALR = test: RT-qPCR expression of CALR gene in HEKa; conditions: 0.01 mg/mL, 24 hours, qPCR (Table 5)
Procedure: HEKa cells were incubated in the presence of 0.01 mg/mL cycled peptide B for 24 hours and HDFa cells were treated with 0.05 mg/mL of cycled peptide B for 6 h. Then, cells were lysed, and RNA was extracted (RNeasy mini kit, Qiagen). Purified RNAs were retro-transcribed (High-capacity cDNA reverse transcription kit, Applied Biosystems). RT-qPCR was performed with the panel of TaqMan assay probes (Thermo Fisher Scientific) using StepOne plus Real time PCR instrument. […] The obtained data were analyzed using the ΔΔCt method, which provides the target gene expression values as fold changes in the treated sample compared with an untreated basal sample. Both samples were normalized with the relative expression of the housekeeping gene GAPDH.
Additionally, expression of CALR after treatment with 0.01 mg/mL of cycled peptides A and B for 24 hours in HEKa cells was analyze by qPCR as described in example 3.

With `CC(C)C[C@@H]1NC(=O)[C@H](C)NC(=O)[C@H](CCCNC(=N)N)NC(=O)[C@H](Cc2ccccc2)NC(=O)[C@H](Cc2c[nH]c3ccccc23)NC(=O)[C@H](Cc2c[nH]cn2)NC1=O` [Peptide A, cyclo-Trp-Phe-Arg-Ala-Leu-His] (cyclo(ALHWFR)) the “caspase 3 activity” value (Caspase 3 (CASP3)) was “significantly reduce”, the viability at 24 h ([1]; 0.001 mg/mL peptide) was 101% and the viability at 24 h ([1]; 0.005 mg/mL peptide) was 103%. It also gave a viability at 24 h ([1]; 0.01 mg/mL peptide) of 94.5%, a viability at 24 h ([1]; 0.05 mg/mL peptide) of 103% and a viability at 24 h ([1]; 0.1 mg/mL peptide) of 92.3%. It also gave a viability at 24 h ([1]; 0.5 mg/mL peptide) of 81.5%, a viability at 24 h ([2]; 0.001 mg/mL peptide) of 103% and a viability at 24 h ([2]; 0.005 mg/mL peptide) of 108%. It also gave a viability at 24 h ([2]; 0.01 mg/mL peptide) of 109%, a viability at 24 h ([2]; 0.05 mg/mL peptide) of 93.8% and a viability at 24 h ([2]; 0.1 mg/mL peptide) of 88.3%. For the same compound, the viability at 24 h ([2]; 0.5 mg/mL peptide) was 75%, the “CALR expression, Effect” value (CALR) was “Upregulation” and the “CALR expression, Ratio” value (CALR; Basal = 1.00) was 1.34.

For “FWHALR [Linear peptide B, reference compound]”, the “CALR expression, Effect” value (CALR) was “No effect”.
